Where “and” joins values, the source holds several entries; their conditions need not be identical. Equal values may be shown once.
Tested on: 317291-083-R-J1-PDC complex spheroid growth
Test: Anticancer human tumor 317291-083-R-J1-PDC patient-derived soft tissue sarcoma cell line growth inhibition [Asc]
Conditions: for viability, T/C: stronger effect = lower value
Method in brief: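 Complex spheroids combining tumor cells with HUVEC endothelial cells and human MSCs, at 37 degrees C, 5% CO2; agents tested alone or combined, half-log dilutions from at or near clinical Cmax, or 10 microM if Cmax unknown.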

[1] = curve of first compound, second compound 0.0316 µM
[2] = curve of first compound, second compound 0.1 µM
[3] = curve of first compound, second compound 0.316 µM
[4] = curve of first compound, second compound 1 µM
[5] = curve of first compound, second compound 3.16 µM
[6] = curve of first compound, second compound 10 µM
[7] = second compound 0.0316 µM, first compound 0.000316 µM
[8] = second compound 0.0316 µM, first compound 0.001 µM
[9] = second compound 0.0316 µM, first compound 0.00316 µM
[10] = second compound 0.0316 µM, first compound 0.01 µM
[11] = second compound 0.0316 µM, first compound 0.0316 µM
[12] = second compound 0.0316 µM, first compound 0.1 µM
[13] = second compound 0.1 µM, first compound 0.000316 µM
[14] = second compound 0.1 µM, first compound 0.001 µM
[15] = second compound 0.1 µM, first compound 0.00316 µM
[16] = second compound 0.1 µM, first compound 0.01 µM
[17] = second compound 0.1 µM, first compound 0.0316 µM
[18] = second compound 0.1 µM, first compound 0.1 µM
[19] = second compound 0.316 µM, first compound 0.000316 µM
[20] = second compound 0.316 µM, first compound 0.001 µM
[21] = second compound 0.316 µM, first compound 0.00316 µM
[22] = second compound 0.316 µM, first compound 0.01 µM
[23] = second compound 0.316 µM, first compound 0.0316 µM
[24] = second compound 0.316 µM, first compound 0.1 µM
[25] = second compound 1 µM, first compound 0.000316 µM
[26] = second compound 1 µM, first compound 0.001 µM
[27] = second compound 1 µM, first compound 0.00316 µM
[28] = second compound 1 µM, first compound 0.01 µM
[29] = second compound 1 µM, first compound 0.0316 µM
[30] = second compound 1 µM, first compound 0.1 µM
[31] = second compound 3.16 µM, first compound 0.000316 µM
[32] = second compound 3.16 µM, first compound 0.001 µM
[33] = second compound 3.16 µM, first compound 0.00316 µM
[34] = second compound 3.16 µM, first compound 0.01 µM
[35] = second compound 3.16 µM, first compound 0.0316 µM
[36] = second compound 3.16 µM, first compound 0.1 µM
[37] = second compound 10 µM, first compound 0.000316 µM
[38] = second compound 10 µM, first compound 0.001 µM
[39] = second compound 10 µM, first compound 0.00316 µM
[40] = second compound 10 µM, first compound 0.01 µM
[41] = second compound 10 µM, first compound 0.0316 µM
[42] = second compound 10 µM, first compound 0.1 µM
[43] = second compound 0.0316 µM, first compound 0.316 µM
[44] = second compound 0.0316 µM, first compound 1 µM
[45] = second compound 0.1 µM, first compound 0.316 µM
[46] = second compound 0.1 µM, first compound 1 µM
[47] = second compound 0.316 µM, first compound 0.316 µM
[48] = second compound 0.316 µM, first compound 1 µM
[49] = second compound 1 µM, first compound 0.316 µM
[50] = second compound 1 µM, first compound 1 µM
[51] = second compound 3.16 µM, first compound 0.316 µM
[52] = second compound 3.16 µM, first compound 1 µM
[53] = second compound 10 µM, first compound 0.316 µM
[54] = second compound 10 µM, first compound 1 µM
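Also: compound exposure lasted seven days after spheroids formed for three days.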
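For viability, T/C in this document: 100% = DMSO vehicle control wells.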

Structure (SMILES): Cc1c(S(C)(=O)=O)c(-c2cc(F)cc(N3CCN(c4ccc(NS(=O)(=O)c5ccc(NC(CCN6CCC(C(=O)OCCCP(=O)(O)O)CC6)CSc6ccccc6)c(S(=O)(=O)C(F)(F)F)c5)cc4)CC3)c2)c(-c2ccc(Cl)cc2)n1C(C)C (centres undefined)
- viability, T/C (compound 0.0316 µM): 98% [middle of 7 runs]
- viability, T/C (compound 0.316 µM): 93.2% [middle of 7 runs]
- viability, T/C (compound 3.16 µM): 81% [middle of 7 runs]
- IC50 (compound alone, run of 11/07/2022): > 10000 nM

Structure (SMILES): NC1CCC(NC2CC2c2ccccc2)CC1 (centres undefined) + Cc1c(S(C)(=O)=O)c(-c2cc(F)cc(N3CCN(c4ccc(NS(=O)(=O)c5ccc(NC(CCN6CCC(C(=O)OCCCP(=O)(O)O)CC6)CSc6ccccc6)c(S(=O)(=O)C(F)(F)F)c5)cc4)CC3)c2)c(-c2ccc(Cl)cc2)n1C(C)C
- IC50 [1]: > 100 nM
- IC50 [2]: > 100 nM
- IC50 [3]: > 100 nM
- IC50 [4]: > 100 nM
- IC50 [5]: > 100 nM
- IC50 [6]: > 100 nM
- viability, T/C [7]: 120%
- viability, T/C [8]: 87.3%
- viability, T/C [9]: 98.2%
- viability, T/C [10]: 99%
- viability, T/C [11]: 106%
- viability, T/C [12]: 86.5%
- viability, T/C [13]: 107%
- viability, T/C [14]: 78.9%
- viability, T/C [15]: 90.2%
- viability, T/C [16]: 76.9%
- viability, T/C [17]: 77.6%
- viability, T/C [18]: 83.9%
- viability, T/C [19]: 93.9%
- viability, T/C [20]: 100%
- viability, T/C [21]: 80.2%
- viability, T/C [22]: 106%
- viability, T/C [23]: 109%
- viability, T/C [24]: 90.5%
- viability, T/C [25]: 73.3%
- viability, T/C [26]: 75%
- viability, T/C [27]: 93%
- viability, T/C [28]: 74.3%
- viability, T/C [29]: 107%
- viability, T/C [30]: 74.1%
- viability, T/C [31]: 72.7%
- viability, T/C [32]: 81.7%
- viability, T/C [33]: 79%
- viability, T/C [34]: 69.9%
- viability, T/C [35]: 87.6%
- viability, T/C [36]: 76%
- viability, T/C [37]: 95.6%
- viability, T/C [38]: 91.9%
- viability, T/C [39]: 97.8%
- viability, T/C [40]: 87.8%
- viability, T/C [41]: 94%
- viability, T/C [42]: 73.7%

Structure (SMILES): CCN1CCN(Cc2ccc(Nc3ncc(F)c(-c4cc(F)c5nc(C)n(C(C)C)c5c4)n3)nc2)CC1 + Cc1c(S(C)(=O)=O)c(-c2cc(F)cc(N3CCN(c4ccc(NS(=O)(=O)c5ccc(NC(CCN6CCC(C(=O)OCCCP(=O)(O)O)CC6)CSc6ccccc6)c(S(=O)(=O)C(F)(F)F)c5)cc4)CC3)c2)c(-c2ccc(Cl)cc2)n1C(C)C
- IC50 [1]: 871 nM
- IC50 [2]: 647 nM
- IC50 [3]: 402 nM
- IC50 [4]: 373 nM
- IC50 [5]: 242 nM
- IC50 [6]: 372 nM
- viability, T/C [9]: 97.4%
- viability, T/C [10]: 105%
- viability, T/C [11]: 87%
- viability, T/C [12]: 87.2%
- viability, T/C [43]: 70%
- viability, T/C [44]: 46.8%
- viability, T/C [15]: 113%
- viability, T/C [16]: 85.7%
- viability, T/C [17]: 90.4%
- viability, T/C [18]: 74%
- viability, T/C [45]: 63.6%
- viability, T/C [46]: 41%
- viability, T/C [21]: 94.1%
- viability, T/C [22]: 80.5%
- viability, T/C [23]: 77.8%
- viability, T/C [24]: 62.1%
- viability, T/C [47]: 66.6%
- viability, T/C [48]: 26.7%
- viability, T/C [27]: 87.2%
- viability, T/C [28]: 88%
- viability, T/C [29]: 67.8%
- viability, T/C [30]: 88.2%
- viability, T/C [49]: 54%
- viability, T/C [50]: 25.9%
- viability, T/C [33]: 75.8%
- viability, T/C [34]: 80.5%
- viability, T/C [35]: 73.5%
- viability, T/C [36]: 63.7%
- viability, T/C [51]: 46%
- viability, T/C [52]: 24.9%
- viability, T/C [39]: 82.7%
- viability, T/C [40]: 90.5%
- viability, T/C [41]: 96.3%
- viability, T/C [42]: 78.7%
- viability, T/C [53]: 54.6%
- viability, T/C [54]: 25.7%

Structure (SMILES): O=C(c1cc(Cc2n[nH]c(=O)c3ccccc23)ccc1F)N1CCN(C(=O)C2CC2)CC1 + Cc1c(S(C)(=O)=O)c(-c2cc(F)cc(N3CCN(c4ccc(NS(=O)(=O)c5ccc(NC(CCN6CCC(C(=O)OCCCP(=O)(O)O)CC6)CSc6ccccc6)c(S(=O)(=O)C(F)(F)F)c5)cc4)CC3)c2)c(-c2ccc(Cl)cc2)n1C(C)C
- IC50 [1]: 6940 nM
- IC50 [2]: 8290 nM
- IC50 [3]: 5210 nM
- IC50 [4]: 4350 nM
- IC50 [5]: 5160 nM
- IC50 [6]: 5440 nM
- viability, T/C [11]: 84.8%
- viability, T/C [12]: 72.5%
- viability, T/C [43]: 88%
- viability, T/C [44]: 75.9%
- viability, T/C (second compound 0.0316 µM, first compound 3.16 µM): 68.2%
- viability, T/C (second compound 0.0316 µM, first compound 10 µM): 41.5%
- viability, T/C [17]: 90%
- viability, T/C [18]: 87.3%
- viability, T/C [45]: 79.1%
- viability, T/C [46]: 84%
- viability, T/C (second compound 0.1 µM, first compound 3.16 µM): 70%
- viability, T/C (second compound 0.1 µM, first compound 10 µM): 45.9%
- viability, T/C [23]: 82.8%
- viability, T/C [24]: 80.5%
- viability, T/C [47]: 90.2%
- viability, T/C [48]: 75.7%
- viability, T/C (second compound 0.316 µM, first compound 3.16 µM): 61.8%
- viability, T/C (second compound 0.316 µM, first compound 10 µM): 35.3%
- viability, T/C [29]: 73.7%
- viability, T/C [30]: 98.6%
- viability, T/C [49]: 69.1%
- viability, T/C [50]: 63.7%
- viability, T/C (second compound 1 µM, first compound 3.16 µM): 64.7%
- viability, T/C (second compound 1 µM, first compound 10 µM): 27.9%
- viability, T/C [35]: 75.7%
- viability, T/C [36]: 62.6%
- viability, T/C [51]: 61.8%
- viability, T/C [52]: 54.1%
- viability, T/C (second compound 3.16 µM, first compound 3.16 µM): 67.6%
- viability, T/C (second compound 3.16 µM, first compound 10 µM): 30.8%
- viability, T/C [41]: 90.6%
- viability, T/C [42]: 83.4%
- viability, T/C [53]: 95.8%
- viability, T/C [54]: 83.2%
- viability, T/C (second compound 10 µM, first compound 3.16 µM): 69.1%
- viability, T/C (second compound 10 µM, first compound 10 µM): 28.9%

Structure (SMILES): Cn1ncnc1[C@H]1c2n[nH]c(=O)c3cc(F)cc(c23)N[C@@H]1c1ccc(F)cc1 + Cc1c(S(C)(=O)=O)c(-c2cc(F)cc(N3CCN(c4ccc(NS(=O)(=O)c5ccc(NC(CCN6CCC(C(=O)OCCCP(=O)(O)O)CC6)CSc6ccccc6)c(S(=O)(=O)C(F)(F)F)c5)cc4)CC3)c2)c(-c2ccc(Cl)cc2)n1C(C)C
- IC50 [1]: > 100 nM
- IC50 [2]: > 100 nM
- IC50 [3]: 81 nM
- IC50 [4]: 49.7 nM
- IC50 [5]: 55 nM
- IC50 [6]: 32.5 nM
- viability, T/C [7]: 93.2%
- viability, T/C [8]: 91.5%
- viability, T/C [9]: 78.4%
- viability, T/C [10]: 85.6%
- viability, T/C [11]: 67.1%
- viability, T/C [12]: 56.6%
- viability, T/C [13]: 91%
- viability, T/C [14]: 90.8%
- viability, T/C [15]: 88.1%
- viability, T/C [16]: 77.9%
- viability, T/C [17]: 64.7%
- viability, T/C [18]: 55.5%
- viability, T/C [19]: 83.2%
- viability, T/C [20]: 74.1%
- viability, T/C [21]: 85.5%
- viability, T/C [22]: 66.8%
- viability, T/C [23]: 63%
- viability, T/C [24]: 47.1%
- viability, T/C [25]: 78.4%
- viability, T/C [26]: 77.3%
- viability, T/C [27]: 71.2%
- viability, T/C [28]: 55.5%
- viability, T/C [29]: 63.2%
- viability, T/C [30]: 40.4%
- viability, T/C [31]: 81.5%
- viability, T/C [32]: 65.9%
- viability, T/C [33]: 72.3%
- viability, T/C [34]: 60.6%
- viability, T/C [35]: 57.5%
- viability, T/C [36]: 43.4%
- viability, T/C [37]: 99.5%
- viability, T/C [38]: 92.9%
- viability, T/C [39]: 71.5%
- viability, T/C [40]: 66.2%
- viability, T/C [41]: 48.3%
- viability, T/C [42]: 41.9%

Structure (SMILES): CNC(C)C(=O)NC1CN(S(=O)(=O)c2cccc(S(=O)(=O)N3CCC4CCC(C(=O)NC(c5ccccc5)c5ccccc5)N4C(=O)C(NC(=O)C(C)NC)C3)c2)CCC2CCC(C(=O)NC(c3ccccc3)c3ccccc3)N2C1=O (centres undefined)
- viability, T/C (compound 0.0316 µM): 72.8% [middle of 9 runs]
- IC50 (curve of compound): 254 nM and 416 nM

From PubChem BioAssay AID1963427 (Molecular Pharmacology Branch, DTP, NCI, 2024)
